{"source": "patent US20240390331A1", "about": "“ORAL BENDAMUSTINE FORMULATIONS” (TUBE Pharmaceuticals GmbH, priority 2017, published 2024)", "key": {"[1]": {"experiment": "PK of bendamustine capsule formulations vs 60 min IV infusion in beagle dogs, cross over (Example 7)", "details": "dog, plasma", "source_text": "As bioanalytical method a fast and reliable method was used to determine bendamustine and its main metabolite γ-hydroxybendamustine (M3 metabolite) simultaneously in plasma of different species (Srinivas N R et al., Drug Res (Stuttg), 2016, 66(7), 351-356; Chandrashekar D V et al., Drug Res (Stuttg), 2017, doi: 10.1055/s-0043-108124).\nThe oral bioavailability and the PK profile of formulations of bendamustine with 2-hydroxypropyl-β-cyclodextrin and β-cyclodextrin were compared in beagle dogs.\nCapsules with an amount of bendamustine hydrochloride for each of the two formulations to reach a dose of 12 mg/kg were administered to beagle dogs using a cross over design and compared to 60 min IV infusion administration. Capsule formulations were stored between 2-8° C. The respective IV formulation was prepared fresh immediately prior to dosing."}, "[2]": {"details": "bendamustine itself, Preiss R et al. 1985; cited from earlier work"}}}
{"compound": "Cl.Cn1c(CCCC(=O)O)nc2cc(N(CCCl)CCCl)ccc21", "note": "[bendamustine, 4-(5-(bis-(2-chloro-ethyl)-amino)-1-methyl-1H-benzimidazol-2-yl)-butyric acid hydrochloride]", "values": [{"measurement": "AUC", "setting": "[1]", "result": 3800, "unit": "ng·h/mL"}, {"measurement": "Cmax", "setting": "[1]", "result": 4300, "unit": "ng/mL"}, {"measurement": "oral bioavailability", "setting": "[2]", "result": "about 56%"}]}
